{"source": "patent US4695576A", "about": "“L-N-n-propylpipecolic acid-2,6-xylidide” (priority 1985, dated 1987)", "key": {"[1]": {"test_system": "conscious rats", "experiment": "Heart-toxicity in conscious rats (ECG)", "format": "in vivo, Male Sprague Dawley rats", "conditions": "for potency to induce atrioventricular conduction disturbances: rat, in vivo", "method": "Male Sprague Dawley rats weighing 290-360 grams were prepared with intravenous catheters under local anesthesia using prilocaine (Citanest*) one hour before experiments. Rapid intravenous bolus injections over 5.0 seconds were given to groups of 8 rats, with a single injection to each animal. […] The ECG was recorded on a Mingograf 34. Convulsions were recorded manually with an electronic marker on one channel of the Mingograf. Only \"primary\" arrhythmias occurring during the first 60 seconds have been analyzed to avoid confusion with late arrhythmias occurring secondary to respiratory arrest or cardiovascular collapse."}, "[2]": {"target": "T1, guinea-pig papillary muscle sodium channels (Cavia porcellus, UniProt H0V4Z8)", "T1 construct": "Vmax of action potential as measure of sodium current", "experiment": "Action on guinea-pig papillary muscle sodium channels (Vmax, recovery from block)", "format": "cell-based", "conditions": "for recovery to 90% of drug-blocked channels: -90 mV; for potency on cardiac sodium channels: equimolar concentrations; for recovery from block: especially at hyperpolarized levels (-100--120 mV)", "source_text": "Depression of cardiac conduction appears to be one of the primary mechanisms underlying local anesthetic cardiotoxicity. Depression of conduction by local anesthetics in both nerve and cardiac tissue results from a block of sodium channels. Furthermore, the degree of sodium channel block by local anesthetics is dependent upon the state of the sodium channel. […] Consequently, a block of sodium channels develops during the upstroke and plateau of the action potential and dissipates during the diastolic interval between beats. Since the effect of a local anesthetic is both state and time dependent, changes in both heart rate and diastolic membrane potential may alter drug action substantially.\n(§1) Guinea pig papillary tests were carried out according to the recommendation of the \"Report of the Subcommittee on Cardiotoxicity of Local Anesthetics\" (Leroy D. Vandam, M.D., chairman). Guinea pig papillary muscle excised from the right ventricle were mounted in a single sucrose gap apparatus (Arlock & Katzune, 1985). Solutions maintained at 37° C.±0.5° continuously perfused the gap compartments. The rear chamber contained isotonic potassium chloride solution. The drugs were added to a Tris-Tyrode solution passing the tip of the muscle. The Tris-Tyrode solution contained (mM): NaCl, 145; KCl, 4; CaCl2, 1.2; MgCl2, 1.05; glucose, 5.5 Tris maleate, 5. It was adjusted to pH 7.4 with trismaleate and HCl before use and gassed with 100% oxygen. Isotonic sucrose solution isolated the rear from the tip to enable current- and voltage-clamping.\nThe muscles were depolarized with long current pulses (1500 msec). These current steps can induce automaticity or DIA (depolarization induced automaticity). The steps were adjusted so the preparations were depolarized to from -50 to -30 mV since that is in that range that calcium current conductance is initiated.\nThe results represent the mean from representative experiments. In the absence of drug, Vmax (maximum upstroke velocity of the action potential) recovers from inactivation with an exponential time constant of less that 30 msec at -90 mV (Gettes and Reuter, 1974). […] The time constant of this recovery process is different for channels blocked by different drugs."}, "[3]": {"conditions": "background statement; cited from earlier work"}, "[4]": {"test_system": "tissue", "experiment": "Tissue toxicity limits (Trypan blue test, threshold of tissue irritancy)", "format": "in vivo", "conditions": "Trypan blue test; approximate threshold values of tissue irritancy; racemate", "source_text": "The toxicity of the homologous series of N-alkylpipecolic acid-2,6-xylidides increases step wise and quickly with the lengthening of the alkyl chain. This is manifest from Table 1 set forth below, which compares racemic mixtures of alkyl homologues having from 1 to 5 carbon atoms.\n*Trypan blue test; Hoppe et al. (1950), 39, 147-151 \"Use of Trypan Blue\nand Rabbit Eye Tests For Irritation\", J. Amer. Pharm. Assoc. (Scient.\nEd.), the values are approximate threshold values of tissue irritancy."}, "[5]": {"experiment": "in vivo", "conditions": "mouse, iv, 50% mortality of mice, racemate"}, "[6]": {"test_system": "peripheral nerve endings of the epidermis", "experiment": "Intracutaneous wheals, infiltration anesthesia on forearms of man", "format": "in vivo", "conditions": "Conc. 0.25%; 12 healthy volunteers, pinprick", "source_text": "By use of intracutaneous wheals it is possible to measure the analgesic effect of an anesthetic on the peripheral nerve endings of the epidermis.\nThis technique gives information about:\n(1) The duration of anesthesia.\n^1 Infiltration anesthesia on forearms of man. The test solutions wer\ninjected intracutaneously on the dorsum of the forearms of 12 healthy\nvolunteers, 20-25 years old. Three wheals were made on each arm in a\nrotating system in a doublebind fashion. The local anesthetic effect was\ntested using a pinprick technique. The \"duration of anesthesia\" was\ndefined as the time during which none out of six pinpricks into the wheal\nwas felt. The method has been described by Dhuner et al. (1972). […]"}, "[7]": {"test_system": "ulnar volar nerves", "experiment": "Finger blockade, digital nerve blocks in man", "format": "in vivo", "conditions": "Concentration 0.25%", "method": "^2 Digital nerve blocks in man. The test solutions were injected to\nblock the ulnar volar nerves on the 2nd and 4th fingers of the same\nvolunteers who had participated in the intracutaneous wheal tests\ndescribed above. The tests were carried out in a double blind fashion in\nrotating system, so that each solution was used with equal frequency on\neach of the blocked fingers. A total of for injections 1.0 ml per\ninjection, was done in each subject. One week later the procedure was\nrepeated in the same subjects using the remaining test solutions. This\nmethod has been described by Dhuner et al. (1972) (for citation see Table\n2 footnote 1). To measure the efficacy and duration of the blocks, the\nindividual fingers were pricked rapidly 10 times with a needle algesimete\nand the number of painful pricks noted. Each finger was tested every five\nminutes until complete recovery. The time of complete anesthesia has been\ncalled \"duration of anesthesia\".\n*i.e. the time from injection to complete analgesia?\n**i.e. the number of successful anesthesias of total number of\nanesthesias performed (no anesthesia is possible if the ulnar volar nerve\nare not contacted by the anesthetic)."}, "[8]": {"test_system": "skin", "experiment": "Skin temperature measurements within intracutaneous wheals", "format": "in vivo, man", "conditions": "Conc. 0.25%, HCl-salt, 10 minutes after injection", "method": "The mean value of 6 wheals for each substance forms the basis for the values. The control values, however, represent the mean value obtained from 4 different sites measured outside the wheals 90 degrees apart and 2 centimeters from the wheal's center.\nIn the temperature measurements, an Oriel temperature apparatus* has been used. This is battery driven and is connected to a detector (diameter, 2.5 mm) and has an accuracy of ±0.1° C. The temperature of the skin is measured by pressing the detector against the skin with a pressure of 100 grams. It is retained against the skin until a constant temperature is obtained.\nIn Table 4, T1 is the measurement obtained at the center of the wheal, and T2 is the average of four measurements taken 90 degrees apart outside of the wheal and within 2 centimeters of the wheal's center."}, "[9]": {"test_system": "pigs", "experiment": "Intracoronary administration in anesthetized pigs", "format": "in vivo, pig", "method": "Eight pigs weighing around 50 kg were anesthetized with a continuous infusion of pentobarbital at 600 mg/h. Ventilation was established via a tracheotomy with 30% oxygen in nitrogen and normoventilation by a Siemens-Elema Servoventilator 900B. The following catheters were inserted after cutdown: Left ventricular, aortic, pulmonary arterial, great cardiac venous, left anterior descending coronary, arterial and central venous. […] The corresponding doses for bupivaciane were 0.25, 0.5, 1, 2 and 4 mg and for LEA 0.33, 0.66, 1.33, 2.66 and 5.33 mg. The injection rate was adjusted according to the preinjection coronary blood flow. Each series of drug injections was preceded by a placebo infusion. Total hemodynamic and electrocardiographic recovery was allowed between doses and there was a one hour resting period between drugs.\nCentral pressures, left ventricular dP/dT and a complete chest lead ECG were recorded continuously. Cardiac output and great cardiac venous blood flow were determined before and directly after each dose of the local anesthetic agent."}, "[10]": {"experiment": "Force of contraction of guinea pig papillary muscle", "format": "cell-based", "conditions": "guinea pig, papillary muscle", "method": "(§2) In order to initiate an investigation without the necessity to involve voltage-clamp of the calcium current, the preparations were subject to long depolarizing induced automaticity. If the cells are depolarized from about -50 to about -30 mV the automaticity is dependent on a transmembrane calcium current.\nas §1, with “Guinea pig papillary muscle excised from the right ventricle were mounted in a single sucrose gap apparatus (Arlock & Katzune, 1985).” left out, “The Tris-Tyrode solution contained (mM): NaCl, 145; KCl, 4; CaCl2, 1.2; MgCl2, 1.05; glucose, 5.5 Tris maleate, 5.” left out\n(§3) The force of contraction was measured with a strain gauge transducer before and after the addition of the test compounds to the medium. The percent reduction in maximum force of contraction from the control was calculated."}, "[11]": {"test_system": "guinea pig papillary muscle", "experiment": "Force of contraction of guinea pig papillary muscle", "format": "cell-based", "method": "as §2\nas §1, with “Guinea pig papillary muscle excised from the right ventricle were mounted in a single sucrose gap apparatus (Arlock & Katzune, 1985).” left out, “The Tris-Tyrode solution contained (mM): NaCl, 145; KCl, 4; CaCl2, 1.2; MgCl2, 1.05; glucose, 5.5 Tris maleate, 5.” left out\nas §3"}, "[12]": {"test_system": "guinea pig papillary muscle", "conditions": "Block and Covino, 1981, Courtney, 1984, Kotelko et al.; cited from earlier work"}, "[13]": {"test_system": "tissue", "conditions": "in vivo, cited from earlier work"}, "[14]": {"conditions": "listed as 5; cited from earlier work"}}, "note": "Where two headings read alike, the source gives them in different places.", "data": [{"smiles": "CCN(CC)CC(=O)Nc1c(C)cccc1C", "note": "[Lidocaine, 2-diethylamino-2',6'-acetoxylidide]", "values": [{"measurement": "Atrioventricular block, rats responding/total", "setting": "[1]; 14 umol/kg i.v. bolus", "value": "0/8"}, {"measurement": "Ventricular arrhythmias, rats responding/total", "setting": "[1]; 14 umol/kg i.v. bolus", "value": "0/8"}, {"measurement": "Atrioventricular block, rats responding/total", "setting": "[1]; 20 umol/kg i.v. bolus", "value": "0/8"}, {"measurement": "Ventricular arrhythmias, rats responding/total", "setting": "[1]; 20 umol/kg i.v. bolus", "value": "0/8"}, {"measurement": "Atrioventricular block, rats responding/total", "setting": "[1]; 28 umol/kg i.v. bolus", "value": "3/8"}, {"measurement": "Ventricular arrhythmias, rats responding/total", "setting": "[1]; 28 umol/kg i.v. bolus", "value": "0/8"}, {"measurement": "Atrioventricular block, rats responding/total", "setting": "[1]; 40 umol/kg i.v. bolus", "value": "4/8"}, {"measurement": "Ventricular arrhythmias, rats responding/total", "setting": "[1]; 40 umol/kg i.v. bolus", "value": "2/8"}, {"measurement": "Atrioventricular block, rats responding/total", "setting": "[1]; 56 umol/kg i.v. bolus", "value": "8/8"}, {"measurement": "Ventricular arrhythmias, rats responding/total", "setting": "[1]; 56 umol/kg i.v. bolus", "value": "1/8"}, {"measurement": "potency to induce atrioventricular conduction disturbances", "setting": "[1]", "value": "least potent"}, {"measurement": "block of channels; fast component not measurable", "setting": "[2]; 10 uM", "value": "virtually all channels were blocked"}, {"measurement": "recovery to 90% of drug-blocked channels", "setting": "[2]", "value": 308, "unit": "ms"}, {"measurement": "potency on cardiac sodium channels", "setting": "[2]", "value": "lowest potency"}, {"measurement": "recovery from block", "setting": "[2]", "value": "considerably faster"}, {"measurement": "local anesthetic effect duration for epidural use", "setting": "[3]", "value": "too short for epidural use"}]}, {"smiles": "CCCCN1CCCCC1C(=O)Nc1c(C)cccc1C", "note": "(racemic) [4 R, N--n-butylpipecolic acid-2,6-xylidide]", "values": [{"measurement": "Tissue toxicity limits in %", "setting": "[4]", "value": 0.75, "unit": "%"}, {"measurement": "LD50", "setting": "[5]", "value": 7.8, "unit": "mg/kg"}, {"measurement": "Analgesia-duration, intracutaneous wheals", "setting": "[6]", "value": "118 ± 15", "unit": "min"}, {"measurement": "Analgesia-duration, finger blockade", "setting": "[7]", "value": "388 ± 50", "unit": "min"}, {"measurement": "Frequency (successful anesthesias of total performed)", "setting": "[7]", "value": "15/20"}, {"measurement": "Time of onset, finger blockade", "setting": "[7]; time from injection to complete analgesia", "value": "9 ± 2", "unit": "min"}, {"measurement": "Temperature Difference (T1 wheal vs T2 controls)", "setting": "[8]", "value": -0.6, "unit": "°C"}, {"measurement": "T1 Intracutaneous Wheal temperature", "setting": "[8]; mean of 6 wheals", "value": 31.5, "unit": "°C"}, {"measurement": "potency to induce atrioventricular conduction disturbances", "setting": "[1]", "value": "most potent"}, {"measurement": "death in ventricular fibrillation", "setting": "[9]; 4 mg intracoronary, eight pigs", "value": "Two animals died in ventricular fibrillation"}, {"measurement": "ventricular fibrillation (VF), time after injection", "setting": "[9]; 4 mg intracoronary, listed as bupivacaine", "value": "≤ 33", "unit": "s"}, {"measurement": "sudden cardiac collapse", "setting": "[9]; intracoronary", "value": "occurred"}, {"measurement": "affinity for the activated and inactivated channels", "setting": "[2]", "value": "very high affinity"}, {"measurement": "recovery to 90% of drug-blocked channels", "setting": "[2]", "value": 3561, "unit": "ms"}, {"measurement": "potency on cardiac sodium channels", "setting": "[2]", "value": "highest"}, {"measurement": "recovery from block", "setting": "[2]", "value": "very slow"}, {"measurement": "inhibition at 5 µM", "setting": "[10]", "value": 45.1, "unit": "%"}, {"measurement": "inhibition at 10 µM", "setting": "[10]", "value": 41.7, "unit": "%"}, {"measurement": "effect on force of contraction/contractility", "setting": "[11]", "value": "pronounced depressant action"}, {"measurement": "negative inotropic effect", "setting": "[12]", "value": "potent negative inotropic effect"}]}, {"smiles": "CCCCCN1CCCCC1C(=O)Nc1c(C)cccc1C", "note": "(stereo not drawn) [5 R, N--n-pentylpipecolic acid-2,6-xylidide]", "values": [{"measurement": "tissue irritation", "setting": "[13]", "value": "irritating"}, {"measurement": "tissue irritation", "setting": "[13]; listed as 5", "value": "too irritating against tissue"}, {"measurement": "solubility in water", "setting": "[14]", "value": "slightly soluble"}]}]}
